Test results: PubChem BioAssay AID1794818
Activity calls are given as the source filed them.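 Rule for the calls: active = dose-dependent response absent in non-induced cells, with a sigmoidal fit giving a valid half-maximal concentration; inactive = the rest.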

Molecular target: Chromaffin granule amine transporter (Homo sapiens) (UniProt P54219)
Experiment: SLC18A1 vesicular uptake inhibitors, dose response, FFN206 fluorescent substrate, HEK-293 overexpressing cells (AID 1794818)
Details: HEK-293 SLC18A1 OE, FFN206 uptake fluorescence

Sequence of Chromaffin granule amine transporter (Homo sapiens) (P54219 whole entry, looked up): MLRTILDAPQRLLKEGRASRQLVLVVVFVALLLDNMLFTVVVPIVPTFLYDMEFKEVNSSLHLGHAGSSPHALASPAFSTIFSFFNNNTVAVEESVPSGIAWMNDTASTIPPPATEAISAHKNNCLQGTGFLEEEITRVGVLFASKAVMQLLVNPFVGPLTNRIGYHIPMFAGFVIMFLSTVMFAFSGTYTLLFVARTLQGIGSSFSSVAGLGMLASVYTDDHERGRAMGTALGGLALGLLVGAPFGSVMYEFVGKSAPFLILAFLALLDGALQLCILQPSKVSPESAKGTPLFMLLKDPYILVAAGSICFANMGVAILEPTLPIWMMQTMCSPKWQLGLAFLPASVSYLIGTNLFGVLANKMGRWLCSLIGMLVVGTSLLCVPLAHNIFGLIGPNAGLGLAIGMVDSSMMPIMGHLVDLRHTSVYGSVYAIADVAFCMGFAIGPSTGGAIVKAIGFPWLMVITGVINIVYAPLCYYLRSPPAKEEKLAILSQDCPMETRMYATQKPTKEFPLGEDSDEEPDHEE

SMILES | outcome | IC50
COc1cc2c(cc1OC)C1CC(=O)C(CC(C)C)CN1CC2 (stereo not drawn) | inactive | –
CNc1ccc2c(CCN)cc(=O)oc2c1 | – | 2 µM
COC(=O)[C@H]1[C@H]2C[C@@H]3c4[nH]c5cc(OC)ccc5c4CCN3C[C@H]2C[C@@H](OC(=O)c2cc(OC)c(OC)c(OC)c2)[C@@H]1OC | – | 0.05 µM
